Experimental data: patent US20100056508A1, “AMINE DERIVATIVES AND THEIR USE IN BETA-2-ADRENORECEPTOR MEDIATED DISEASES” (ASTRAZENECA AB, priority 2006, published 2010)
Counter-ions that a name gives are not always drawn.

Columns and labels:
[1] = biological target: T1, recombinant human α1D receptor (Homo sapiens, UniProt P25100); test: Adrenergic α1D selectivity assay, [3H]-prazosin binding to membranes; settings: inhibition of [3H]-prazosin binding, HEK cell membranes, read-out: α1 bind pIC50 (converted)
T1 construct: expressed in transfected cells; host or cells: human embryonic kidney 293 cells (HEK93 [sic]), membranes
T1 sequence (P25100 1-572): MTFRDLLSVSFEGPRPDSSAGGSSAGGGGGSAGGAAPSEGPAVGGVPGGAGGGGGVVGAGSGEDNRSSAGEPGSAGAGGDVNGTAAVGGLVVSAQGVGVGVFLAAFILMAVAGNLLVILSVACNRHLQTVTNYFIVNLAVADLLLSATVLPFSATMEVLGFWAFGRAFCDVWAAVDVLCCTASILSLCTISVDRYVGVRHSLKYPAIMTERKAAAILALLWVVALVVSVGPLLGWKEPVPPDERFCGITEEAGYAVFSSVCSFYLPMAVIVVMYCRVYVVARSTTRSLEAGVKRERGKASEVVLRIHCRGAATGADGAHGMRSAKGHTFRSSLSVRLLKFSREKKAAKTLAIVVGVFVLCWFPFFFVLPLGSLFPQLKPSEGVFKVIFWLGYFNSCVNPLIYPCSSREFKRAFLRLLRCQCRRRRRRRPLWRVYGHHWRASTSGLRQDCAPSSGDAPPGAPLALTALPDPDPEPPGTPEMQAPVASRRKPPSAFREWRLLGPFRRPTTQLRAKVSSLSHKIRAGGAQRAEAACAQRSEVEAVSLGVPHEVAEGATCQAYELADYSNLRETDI
Procedure, shortened: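 Competition binding on HEK293 membranes with recombinant human α1D receptor, 0.3 nM [3H]-prazosin, 50 mM HEPES/1 mM EDTA pH 7.4, 2 h at room temperature; filtration and scintillation counting. Non-specific binding defined with 10 μM BMY7378. pIC50 from four-parameter logistic fit of specific-binding inhibition.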

[2] = biological target: T2, recombinant human adrenergic beta 1 receptors (Homo sapiens, UniProt P08588); test: Adrenergic β1 selectivity assay, [125I]-Iodocyanopindolol binding to membranes; settings: inhibition of [125I]-Iodocyanopindolol binding, read-out: β1 bind pIC50 (converted)
T2 construct: purchased Euroscreen
Experimental: Membranes containing recombinant human adrenergic beta 1 receptors were obtained from Euroscreen. These were diluted in Assay Buffer (50 mM HEPES, 1 mM EDTA, 120 mM NaCl, 0.1% gelatin, pH 7.4) to provide a final concentration of membranes that gave a clear window between maximum and minimum specific binding.
Assays were performed in U-bottomed 96-well polypropylene plates. 10 μL [^125I]-Iodocyanopindolol (0.036 nM final concentration) and 10 μL of test compound (10× final concentration) were added to each test well. For each assay plate 8 replicates were obtained for [^125I]-Iodocyanopindolol binding in the presence of 10 μL vehicle (10% (v/v) DMSO in Assay Buffer; defining maximum binding) or 10 μL Propranolol (10 μM final concentration; defining non-specific binding (NSB)). Membranes were then added to achieve a final volume of 100 μL. The plates were incubated for 2 hours at room temperature and then filtered onto PEI coated GF/B filter plates, pre-soaked for 1 hour in Assay Buffer, using a 96-well plate Tomtec cell harvester. Five washes with 250 μL wash buffer (50 mM HEPES, 1 mM EDTA, 120 mM NaCl, pH 7.4) were performed at 4° C. to remove unbound radioactivity. The plates were dried then sealed from underneath using Packard plate sealers and MicroScint-O (50 μL) was added to each well. The plates were sealed (TopSeal A) and filter-bound radioactivity was measured with a scintillation counter (TopCount, Packard BioScience) using a 3-minute counting protocol.
Total specific binding (B0) was determined by subtracting the mean NSB from the mean maximum binding. NSB values were also subtracted from values from all other wells. […] Data was fitted to a four parameter logistic equation to determine the compound potency, which was expressed as pIC50 (negative log molar concentration inducing 50% inhibition of [^125I]-Iodocyanopindolol binding).

T2 sequence (P08588 whole entry): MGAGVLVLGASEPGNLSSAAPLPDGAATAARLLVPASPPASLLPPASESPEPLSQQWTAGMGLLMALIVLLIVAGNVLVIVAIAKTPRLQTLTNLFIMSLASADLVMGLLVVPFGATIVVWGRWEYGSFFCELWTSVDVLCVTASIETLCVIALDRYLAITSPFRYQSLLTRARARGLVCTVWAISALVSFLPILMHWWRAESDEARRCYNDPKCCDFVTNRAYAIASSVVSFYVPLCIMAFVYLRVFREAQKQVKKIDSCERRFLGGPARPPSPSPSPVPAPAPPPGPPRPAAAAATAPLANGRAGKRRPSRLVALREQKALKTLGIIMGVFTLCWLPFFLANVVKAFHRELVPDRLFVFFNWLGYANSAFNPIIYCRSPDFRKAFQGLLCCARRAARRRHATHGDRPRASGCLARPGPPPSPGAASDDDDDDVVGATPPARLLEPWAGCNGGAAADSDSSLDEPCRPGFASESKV

Row | IC50 [1] [nM] | IC50 [2] [nM] | SMILES
1 | 79.4 | 2000 | CCCC[C@@H](C)N(CCNCCc1ccc(O)c2c1OCC(=O)N2)C(=O)CCNCCc1cc(F)ccc1F [Example 54, (R)-3-(2,5-Difluorophenethylamino)-N-(hexan-2-yl)-N-(2-(2-(5-hydroxy-3-oxo-3,4-dihydro-2H-benzo[b][1,4]oxazin-8-yl)ethylamino)ethyl)propanamide bis(trifluoroacetate)]
2 | 200 | 1000 | O=C1COc2c(CCNCCN(C(=O)CCNCCc3ccc(F)c(F)c3)C3CCCCCC3)ccc(O)c2N1 [Example 67, N-Cycloheptyl-3-(3,4-difluorophenethylamino)-N-(2-(2-(5-hydroxy-3-oxo-3,4-dihydro-2H-benzo[b][1,4]oxazin-8-yl)ethylamino)ethyl)propanamide bis(trifluoroacetate)]
3 | 200 | 3160 | O=C1COc2c(CCNCCN(C(=O)CCNCCc3ccc(F)c(F)c3)C3CCCCC3)ccc(O)c2N1 [Example 42, N-Cyclohexyl-3-(3,4-difluorophenethylamino)-N-(2-(2-(5-hydroxy-3-oxo-3,4-dihydro-2H-benzo[b][1,4]oxazin-8-yl)ethylamino)ethyl)propanamide bis(trifluoroacetate)]
4 | 63.1 | 1260 | O=C1COc2c(CCNCCN(C(=O)CCNCCc3cc(F)ccc3F)C3CCCCCC3)ccc(O)c2N1 [Example 64, N-Cycloheptyl-3-(2,5-difluorophenethylamino)-N-(2-(2-(5-hydroxy-3-oxo-3,4-dihydro-2H-benzo[b][1,4]oxazin-8-yl)ethylamino)ethyl)propanamide bis(trifluoroacetate)]
5 | 79.4 | 3160 | O=C(CCNCCc1ccc(Cl)cc1)N(CCNCCc1ccc(O)c2[nH]c(=O)ccc12)C1CCCCCC1 [Example 4, 3-(4-Chlorophenethylamino)-N-cycloheptyl-N-(2-(2-(8-hydroxy-2-oxo-1,2-dihydroquinolin-5-yl)ethylamino)ethyl)propanamide bis(trifluoroacetate)]
6 | 200 | 794 | O=C1COc2c(CCNCCN(C(=O)CCNCCc3cccc(F)c3)C3CCCCCC3)ccc(O)c2N1 [Example 69, N-Cycloheptyl-3-(3-fluorophenethylamino)-N-(2-(2-(5-hydroxy-3-oxo-3,4-dihydro-2H-benzo[b][1,4]oxazin-8-yl)ethylamino)ethyl)propanamide bis(trifluoroacetate)]
7 | 20 | 501 | C[C@H](C1CCCCC1)N(CCNCCc1ccc(O)c2c1OCC(=O)N2)C(=O)CCNCCc1ccccc1 [Example 61, (R)—N-(1-Cyclohexylethyl)-N-(2-(2-(5-hydroxy-3-oxo-3,4-dihydro-2H-benzo[b][1,4]oxazin-8-yl)ethylamino)ethyl)-3-(phenethylamino)propanamide bis(trifluoroacetate)]
8 | 158 | > 5010 | O=C1COc2c(CCNCCN(C(=O)CCNCCc3cc(F)ccc3F)C3CCCCC3)ccc(O)c2N1 [Example 38, N-Cyclohexyl-3-(2,5-difluorophenethylamino)-N-(2-(2-(5-hydroxy-3-oxo-3,4-dihydro-2H-benzo[b][1,4]oxazin-8-yl)ethylamino)ethyl)propanamide bis(trifluoroacetate)]
9 | 200 | 1580 | CCCC[C@@H](C)N(CCNCCc1ccc(O)c2c1OCC(=O)N2)C(=O)CCNCCc1ccc(F)c(F)c1 [Example 52, (R)-3-(3,4-Difluorophenethylamino)-N-(hexan-2-yl)-N-(2-(2-(5-hydroxy-3-oxo-3,4-dihydro-2H-benzo[b][1,4]oxazin-8-yl)ethylamino)ethyl)propanamide bis(trifluoroacetate)]
10 | 251 | 1000 | CCCC[C@@H](C)N(CCNCCc1ccc(O)c2c1OCC(=O)N2)C(=O)CCNCCc1ccc(Cl)c(Cl)c1 [Example 55, (R)-3-(3,4-Dichlorophenethylamino)-N-(hexan-2-yl)-N-(2-(2-(5-hydroxy-3-oxo-3,4-dihydro-2H-benzo[b][1,4]oxazin-8-yl)ethylamino)ethyl)propanamide bis(trifluoroacetate)]
11 | 398 | > 10000 | O=C(CCNCCc1cccc(F)c1F)N(CCNCCc1ccc(O)c2[nH]c(=O)ccc12)C1CCCCC1 [Example 18, N-Cyclohexyl-3-(3-difluorophenethylamino)-N-(2-(2-(8-hydroxy-2-oxo-1,2-dihydroquinolin-5-yl)ethylamino)ethyl)propanamide bis(trifluoroacetate)]
12 | 50.1 | 631 | O=C1COc2c(CCNCCN(C(=O)CCNCCc3ccccc3)C3CCCCCC3)ccc(O)c2N1 [Example 24, N-Cycloheptyl-N-(2-(2-(5-hydroxy-3-oxo-3,4-dihydro-2H-benzo[b][1,4]oxazin-8-yl)ethylamino)ethyl)-3-(phenethylamino)propanamide bis(trifluoroacetate)]
13 | 158 | 398 | O=C1COc2c(CCNCCN(C(=O)CCNCCc3cccc(Cl)c3)C3CCCCCC3)ccc(O)c2N1 [Example 68, 3-(3-Chlorophenethylamino)-N-cycloheptyl-N-(2-(2-(5-hydroxy-3-oxo-3,4-dihydro-2H-benzo[b][1,4]oxazin-8-yl)ethylamino)ethyl)propanamide bis(trifluoroacetate)]
14 | 200 | 2000 | CC(C)[C@@H](C)N(CCNCCc1ccc(O)c2c1OCC(=O)N2)C(=O)CCNCCc1ccc(Cl)c(Cl)c1 [Example 59, (R)-3-(3,4-Dichlorophenethylamino)-N-(2-(2-(5-hydroxy-3-oxo-3,4-dihydro-2H-benzo[b][1,4]oxazin-8-yl)ethylamino)ethyl)-N-(3-methylbutan-2-yl)propanamide dihydrochloride]
15 | 79.4 | > 10000 | O=CNc1cc(CCNCCN(C(=O)CCNCCc2ccccc2)C2CCCCC2)ccc1O [Example 21, N-Cyclohexyl-N-(2-(3-formamido-4-hydroxyphenethylamino)ethyl)-3-(phenethylamino)propanamide]
16 | 1000 | 2000 | O=C1COc2c(CCNCCN(C(=O)CCOCCc3ccccc3F)C3CCCCC3)ccc(O)c2N1 [Example 76, N-Cyclohexyl-3-(2-fluorophenethoxy)-N-(2-(2-(5-hydroxy-3-oxo-3,4-dihydro-2H-benzo[b][1,4]oxazin-8-yl)ethylamino)ethyl)propanamide trifluoroacetate]
17 | 316 | > 10000 | CCOc1cccc(CCNCCC(=O)N(CCNCCc2ccc(O)c3[nH]c(=O)ccc23)C2CCCCCC2)c1 [Example 11, N-Cycloheptyl-3-(3-ethoxyphenethylamino)-N-(2-(2-(8-hydroxy-2-oxo-1,2-dihydroquinolin-5-yl)ethylamino)ethyl)propanamide bis(trifluoroacetate)]
18 | 50.1 | 1260 | CCCC[C@@H](C)N(CCNCCc1ccc(O)c2c1OCC(=O)N2)C(=O)CCNCCc1cccc(Cl)c1 [Example 44, (R)-3-(3-Chlorophenethylamino)-N-(hexan-2-yl)-N-(2-(2-(5-hydroxy-3-oxo-3,4-dihydro-2H-benzo[b][1,4]oxazin-8-yl)ethylamino)ethyl)propanamide bis(trifluoroacetate)]
